Experimental data: patent US7884242B2, “N-heterocyclylphthaldiamides as insecticides” (Bayer CropScience AG, priority 2004, dated 2011)
Where a name gives a salt, the structure may show the parent alone.

Assays:
[1] = log P determination by HPLC on reverse phase column, pH 2.3; assay type: physicochemical; settings: reverse phase column (C 18), pH 2.3, 43° C.; for chromatographic logP: reverse phase HPLC column (C 18)
Protocol: The determination of the log P values given in the above table and preparation examples is carried out in accordance with EEC directive 79/831 Annex V.A8 by HPLC (High Performance Liquid Chromatography) on a reverse phase column (C 18). Temperature: 43° C. The determination is carried out under acidic conditions at pH 2.3 with 0.1% aqueous phosphoric acid and acetonitrile as eluents; linear gradient of 10% acetonitrile to 95% acetonitrile. Calibration was is carried out with unbranched alkan-2-ones (with 3 to 16 carbon atoms) of known log P values (Determination of log P values by the retention times by linear interpolation between two sequential alkanones).

[2] = system: green peach aphid (Myzus persicae); assay: Myzus test (spray treatment); assay type: in vivo; settings: for pest or weed control at 100 g/ha: Myzus persicae, in Brassica oleracea, 120 h, read-out: Death rate in % after 5d; for activity in Myzus test (spray treatment): statement in words
Protocol: [table] For the preparation of a suitable active compound formulation 1 part by weight of the active compound is mixed with the above amounts of solvent and emulsifier and the concentrate is diluted to the desired concentration with water containing emulsifier. China cabbage slices (Brassica pekinensis) that are infected with all stages of the green peach aphid (Myzus persicae) are sprayed with an active compound preparation at the desired concentration. After the desired time the activity in % is determined. Here 100% means that all aphids were killed; 0% means that no aphids were killed.

[3] = system: caterpillars of the fall army worm (Spodoptera frugiperda); assay: Spodoptera frugiperda test (spray treatment); assay type: in vivo; settings: for pest or weed control at 4 g/ha: Spodoptera frugiperda, 168 h, spray treatment, maize leaf sections, after 7 d, read-out: Death rate in % after 7d; for activity in Spodoptera frugiperda test (spray treatment): statement in words
Protocol: [table] For the preparation of a suitable active compound formulation 1 part by weight of the active compound is mixed with the above amounts of solvent and emulsifier and the concentrate is diluted to the desired concentration with water containing emulsifier. Maize leaf sections (Zea mays) are sprayed with an active compound preparation of the desired concentration and after drying infected with caterpillars of the fall army worm (Spodoptera frugiperda). After the desired time the activity in % is determined. Here 100% means that all caterpillars were killed; 0% means that no caterpillars were killed.

[4] = 100 g/ha, spray treatment, China cabbage slices, after 5 d

For `CSCC(C)NC(=O)c1c(Cl)cccc1C(=O)Nc1ccc(Cn2nc(C(F)(F)C(F)(F)F)nc2C(F)(F)C(F)(F)F)nc1C` (centres unmarked) [Example 47], the “log P (pH 2.3)” value [1] was “log P (pH 2.3): 4.23”.
In the case of `CSCC(C)NC(=O)c1c(Cl)cccc1C(=O)Nc1ccc(Cn2nc(C(F)(F)C(F)(F)F)cc2C(F)(F)C(F)(F)F)nc1C` (centres unmarked) [Example 49], the “log P (pH 2.3)” value [1] is reported as “log P (pH 2.3): 4.37”.
For `CSCC(C)NC(=O)c1c(Cl)cccc1C(=O)Nc1ccc(Cn2nc(C(F)(F)C(F)(F)F)c(C(F)(F)F)c2F)nc1C` (centres unmarked) [Example 46], the “log P (pH 2.3)” value [1] was “log P (pH 2.3): 4.15”.
In the case of `Cc1nc(Cn2nc(C(F)(F)F)nc2C(F)(F)F)ncc1NC(=O)c1cccc(Br)c1C(=O)N[C@@H](C)CS(C)(=O)=O` [Example 37], the chromatographic logP [1] is reported as 2.49, the pest or weed control at 100 g/ha [2, 4] is reported as 100% and the “activity in Myzus test (spray treatment)” value [2] is reported as “good activity”.
For `CSC[C@H](C)NC(=O)c1c(Cl)cccc1C(=O)Nc1cc(Cn2nc(C(F)(F)F)nc2C(F)(F)F)sc1C` [Example 3], the chromatographic logP [1] was 3.8.
With `Cc1nc(Cn2nc(C(F)(F)C(F)(F)F)cc2C(F)(F)C(F)(F)F)ncc1NC(=O)c1cccc(Cl)c1C(=O)NC(C)C[S+](C)[O-]` (centres unmarked) [Example 26] the “log P (pH 2.3)” value [1] was “log P (pH 2.3): 2.91”.
In the case of `CSCC(C)NC(=O)c1c(Cl)cccc1C(=O)Nc1cnc(Cn2nc(C(F)F)cc2C(F)F)nc1C` (centres unmarked) [Example 35], the “log P (pH 2.3)” value [1] is reported as “log P (pH 2.3): 2.65”.
With `Cc1nc(Cn2nc(C(F)(F)F)cc2C(F)(F)F)ncc1NC(=O)c1cccc(Cl)c1C(=O)N[C@@H](C)CS(C)(=O)=O` [Example 38] the pest or weed control at 100 g/ha [2, 4] was 100%.
With `Cc1nc(Cn2nc(C(F)(F)F)cc2C(F)(F)F)ncc1NC(=O)c1cccc(Cl)c1C(=O)N[C@@H](C)C[S+](C)[O-]` (some centres unmarked) [Example 5, N^1-[2-(3,5-bistrifluoromethylpyrazol-1-ylmethyl)-4-methylpyrimidin-5-yl]-3-chloro-N^2-(S-2-methanesulphinyl-1-methylethyl)phthalamide] the chromatographic logP [1] was 2.17, the pest or weed control at 100 g/ha [2, 4] was 80% and the “activity in Myzus test (spray treatment)” value [2] was “good activity”.
Molecule `Cc1nc(Cn2nc(C(F)(F)F)cc2C(F)(F)F)ncc1NC(=O)OC(C)(C)C` [VI-1, tert-butyl [2-(3,5-bistrifluoromethylpyrazol-1-ylmethyl)-4-methylpyrimidin-5-yl]carbamidate] has a chromatographic logP [1] of 3.84.
In the case of `CSCC(C)NC(=O)c1c(Cl)cccc1C(=O)Nc1ccc(Cn2nc(C(F)(F)C(F)(F)F)cc2C(F)(F)F)nc1C` (centres unmarked) [Example 42], the “log P (pH 2.3)” value [1] is reported as “log P (pH 2.3): 3.95”.
`Cc1nc(Cn2nc(C(F)(F)F)cc2C(F)(F)F)ncc1C(=O)O` [2-(3,5-bistrifluoromethylpyrazol-1-yl-methyl)-4-methylpyrimidin-5-carboxylic acid] gave a chromatographic logP [1] of 2.68.
With `Cc1nc(Cn2nc(C(F)(F)F)cc2C(F)(F)F)ncc1NC(=O)c1cccc(Cl)c1C(=O)N[C@@H](C)C[S+](C)[O-]` (some centres unmarked) [Example 39] the “Death rate in % after 5d” value [2, 4] was 100% and the “activity in Myzus test (spray treatment)” value [2] was “good activity”.
`N=C(N)Cn1nc(C(F)(F)F)cc1C(F)(F)F` [IX-1, 2-(3,5-bistrifluoromethyl-pyrazol-1-yl)acetamidine hydrochloride] gave a chromatographic logP [1] of 0.74.
In the case of `CSC[C@H](C)NC(=O)c1c(Br)cccc1C(=O)Nc1cnc(Cn2nc(C(F)(F)C(F)(F)F)nc2C(F)(F)F)nc1C` [Example 31], the chromatographic logP [1] is reported as 3.67, the pest or weed control at 100 g/ha [2, 4] is reported as 100% and the “activity in Myzus test (spray treatment)” value [2] is reported as “good activity”. For the same molecule, the pest or weed control at 4 g/ha [3] was 100% and the “activity in Spodoptera frugiperda test (spray treatment)” value (shortened to “activity in Spodoptera frugiperda test”) [3] was “good activity”.
In the case of `Cc1nc(Cn2nc(C(F)(F)F)nc2C(F)(F)F)ncc1NC(=O)c1cccc(Br)c1C(=O)N[C@@H](C)C[S+](C)[O-]` (some centres unmarked) [Example 36], the chromatographic logP [1] is reported as 2.07, the pest or weed control at 100 g/ha [2, 4] is reported as 100% and the “activity in Myzus test (spray treatment)” value [2] is reported as “good activity”.
With `Cc1nc(Cn2nc(C(F)(F)F)cc2C(F)(F)F)ncc1N` [IIIa-2, 2-(3,5-bis-trifluoromethylpyrazol-1-yl-methyl)-4-methylpyrimidin-5-yl-amine] the chromatographic logP [1] was 2.43.
For `CSCC(C)NC(=O)c1c(Cl)cccc1C(=O)Nc1cnc(Cn2nc(C(F)(F)C(F)(F)F)cc2C(F)(F)C(F)(F)F)nc1C` (centres unmarked) [Example 27], the “log P (pH 2.3)” value [1] was “log P (pH 2.3): 4.11”.
For `CSC[C@H](C)NC(=O)c1c(I)cccc1C(=O)Nc1cnc(Cn2nc(C(F)(F)F)nc2C(F)(F)F)nc1C` [Example 22], the chromatographic logP [1] was 3.35, the pest or weed control at 100 g/ha [2, 4] was 90% and the “activity in Myzus test (spray treatment)” value [2] was “good activity”.
With `CSC[C@H](C)NC(=O)c1c(I)cccc1C(=O)Nc1cnc(Cn2nc(C(F)(F)F)cc2C(F)(F)F)nc1C` [Example 19] the chromatographic logP [1] was 3.55, the pest or weed control at 100 g/ha [2, 4] was 100% and the “activity in Myzus test (spray treatment)” value [2] was “good activity”. For the same molecule, the pest or weed control at 4 g/ha [3] was 83% and the “activity in Spodoptera frugiperda test” value [3] was “good activity”.
With `CSC[C@H](C)NC(=O)c1c(Cl)cccc1C(=O)Nc1cnc(Cn2nc(C(F)(F)F)cc2C(F)(F)F)nc1C` [Example 4, N^1-[2-(3,5-bis-trifluoromethyl-pyrazol-1-ylmethyl)-4-methylpyrimidin-5-yl]-3-chloro-N^2-(S-1-methyl-2-methylsulphanylethyl)phthalamide] the chromatographic logP [1] was 3.39.
With `Cc1nc(Cn2nc(C(F)(F)F)cc2C(F)(F)F)ccc1NC(=O)c1cccc(Br)c1C(=O)NC(C)C[S+](C)[O-]` (centres unmarked) [Example 11] the “log P (pH 2.3)” value [1] was “log P (pH 2.3): 2.32”.
In the case of `CSCC(C)NC(=O)c1c(Cl)cccc1C(=O)Nc1ccc(Cn2nc(C(F)(F)C(F)(F)F)nc2C(F)(F)F)nc1C` (centres unmarked) [Example 43], the “log P (pH 2.3)” value [1] is reported as “log P (pH 2.3): 3.80”.
For `Cc1nc(Cn2nc(C(F)(F)C(F)(F)F)nc2C(F)(F)F)ncc1NC(=O)c1cccc(Br)c1C(=O)N[C@@H](C)C[S+](C)[O-]` (some centres unmarked) [Example 28], the chromatographic logP [1] was 2.42, the pest or weed control at 100 g/ha [2, 4] was 100% and the “activity in Myzus test (spray treatment)” value [2] was “good activity”.
With `COC(=O)Cn1nc(C(F)(F)F)cc1C(F)(F)F` [methyl (3,5-bistrifluoromethyl-pyrazol-1-yl)acetate] the chromatographic logP [1] was 2.93.
Work on `CCOC(=O)c1cnc(Cn2nc(C(F)(F)F)cc2C(F)(F)F)nc1C` [Example V-1, ethyl 2-(3,5-bistrifluoromethyl-pyrazol-1-yl-methyl)-4-methylpyrimidine-5-carboxylate] yielded a chromatographic logP [1] of 3.96.
In the case of `CSC[C@H](C)NC(=O)c1c(Br)cccc1C(=O)Nc1cnc(Cn2nc(C(F)(F)F)nc2C(F)(F)F)nc1C` [Example 21], the chromatographic logP [1] is reported as 3.29, the pest or weed control at 100 g/ha [2, 4] is reported as 100% and the “activity in Myzus test (spray treatment)” value [2] is reported as “good activity”.
For `CSC[C@H](C)NC(=O)c1c(Cl)cccc1C(=O)Nc1cnc(Cn2nc(C(F)(F)F)nc2C(F)(F)F)nc1C` [Example 20], the chromatographic logP [1] was 3.24, the pest or weed control at 100 g/ha [2, 4] was 100% and the “activity in Myzus test (spray treatment)” value [2] was “good activity”.
For `Cc1nc(Cn2nc(C(F)F)cc2C(F)F)ncc1NC(=O)c1cccc(Cl)c1C(=O)NC(C)CS(C)(=O)=O` (centres unmarked) [Example 33], the “log P (pH 2.3)” value [1] was “log P (pH 2.3): 1.89”.
For `Cc1nc(Cn2nc(C(F)(F)F)nc2C(F)(F)F)ncc1NC(=O)c1cccc(I)c1C(=O)N[C@@H](C)C[S+](C)[O-]` (some centres unmarked) [Example 40], the chromatographic logP [1] was 2.13, the pest or weed control at 100 g/ha [2, 4] was 100% and the “activity in Myzus test (spray treatment)” value [2] was “good activity”.
With `Cc1nc(Cn2nc(C(F)F)cc2C(F)F)ncc1NC(=O)c1cccc(Cl)c1C(=O)NC(C)C[S+](C)[O-]` (centres unmarked) [Example 32] the “log P (pH 2.3)” value [1] was “log P (pH 2.3): 1.67”.
In the case of `Cc1nc(Cn2nc(C(F)(F)C(F)(F)F)nc2C(F)(F)F)ncc1NC(=O)c1cccc(Cl)c1C(=O)N[C@@H](C)C[S+](C)[O-]` (some centres unmarked) [Example 29], the chromatographic logP [1] is reported as 2.41, the pest or weed control at 100 g/ha [2, 4] is reported as 100% and the “activity in Myzus test (spray treatment)” value [2] is reported as “good activity”. For the same molecule, the pest or weed control at 4 g/ha [3] was 100% and the “activity in Spodoptera frugiperda test” value [3] was “good activity”.
In the case of `Cc1nc(Cn2nc(C(F)(F)C(F)(F)F)cc2C(F)(F)C(F)(F)F)ncc1NC(=O)c1cccc(Cl)c1C(=O)NC(C)CS(C)(=O)=O` (centres unmarked) [Example 25], the “log P (pH 2.3)” value [1] is reported as “log P (pH 2.3): 3.29”.
With `Cc1nc(Cn2nc(C(F)(F)F)cc2C(F)(F)F)ccc1NC(=O)c1cccc(Br)c1C(=O)NC(C)CS(C)(=O)=O` (centres unmarked) [Example 45] the “log P (pH 2.3)” value [1] was “log P (pH 2.3): 2.76”.
`CSC[C@H](C)/N=C1\OC(=O)c2cccc(I)c21` [II-1, 4-iodo-3-[(1S)-1-methyl-2-methylsulphanylethylimino]-3H-isobenzofuran-1-one] showed a chromatographic logP [1] of 3.87.
For `CSCC(C)NC(=O)c1c(I)cccc1C(=O)Nc1ccc(Cn2nc(C(F)(F)F)nc2C(F)(F)F)nc1C` (centres unmarked) [Example 12], the “log P (pH 2.3)” value [1] was “log P (pH 2.3): 3.52”.
In the case of `Cc1nc(Cn2nc(C(F)(F)F)cc2C(F)(F)F)ncc1NC(=O)c1cccc(Br)c1C(=O)N[C@@H](C)C[S+](C)[O-]` (some centres unmarked) [Example 23], the chromatographic logP [1] is reported as 2.2, the pest or weed control at 100 g/ha [2, 4] is reported as 80% and the “activity in Myzus test (spray treatment)” value [2] is reported as “good activity”.
